Data taken from patent US12636292B2, “Method and composition for reversing and/or inhibiting atherosclerosis” (ARJIL BIOTECH HOLDING COMPANY LIMITED, priority 2019, dated 2026).

Columns and labels:
[1] = tested on: TNF-α; experiment: ELISA of TNF-α in RAW264.7 macrophages; type: cell-based, mouse; details: 20 μg/mL with 0.75 mM palm acid oil (856.9 without)
[2] = tested on: IL-1β; experiment: ELISA of IL-1β in RAW264.7 macrophages; type: cell-based, mouse; details: 20 μg/mL with 0.75 mM palm acid oil (272.3 without)
[3] = tested on: RAW264.7 macrophages; experiment: Cellular migration assay (transwell); type: cell-based; details: 48 h
Protocol: RAW264.7 macrophage was purchased from the Hsin-Chu Food Industry Development Institute Cell Bank (FIRDI, Cat no: BCRC-60001). The cell culture medium contains high-glucose DMEM (Gibco BRL, Grand Island, NY, USA), 10% FBS, 1.5 g/L sodium bicarbonate, 0.11 g/L sodium pyruvate, 4 mM L-glutamine, 100 U/mL penicillin, and 100 μg/mL streptomycin. These cells were maintained in a humidified incubator at 37° C. and 5% CO2. After collecting the cells with a spatula, for each 24-well culture plate, all cell densities were adjusted to 1×10^5 cells per well for migration assays.
We used a cellular migration assay to examine the cellular migration ability of RAW 264.7 macrophages toward vascular endothelial cells with high-fat damage. The cellular migration assay has been clearly described in a previous report (Hwang et al., 2021). Transwells (Corning, New York, NY, USA) with 8.0 μm pore size were used in this experiment for cell migration assays. In total, 1×10^5 RAW264.7 macrophage, labeled with the red fluorescent dye of 1,1′-Dioctadecyl-6,6′-Di(4-Sulfophenyl) (SP-Di1C18(3)), was added to the upper layer of transwell after 48 h. […] Images were taken with a fluorescence microscope (Leica Microsystems, Wetzlar, Germany), and analysis was performed using Leica Application Suite software (LAS) V4.12 s (Leica Microsystems, Wetzlar, Germany) after 48 h of culture.

[4] = tested on: TNF-α; experiment: ELISA of TNF-α in palm acid oil-treated vascular endothelial cells; type: cell-based, mouse
Protocol: (§1) Vascular endothelial cells (SVEC4-10) were purchased from the Cell Bank of Hsin-Chu Food Industry Development Institute (FIRDI, Cat no: BCRC-60220). SVEC4-10 cells were cultured in high-glucose DMEM (Dulbecco's Modified Eagle Medium) (Gibco BRL, Grand Island, NY, USA) and supplemented with 10% Fetal Bovine Serum (FBS) (HyClone, Logan, UT, USA), 1.5 g/L sodium bicarbonate, 0.11 g/L sodium pyruvate, 4 mM L-glutamine, 100 U/mL penicillin, and 100 μg/mL streptomycin (Gibco BRL, Grand Island, NY, USA).
(§2) These cells were grown in a culture medium and maintained in a humidified incubator at 37° C. and 5% CO2. Vascular endothelial cells were digested with 0.25% trypsin (Gibco BRL, Grand Island, NY, USA) for approximately 1 min until most cells detached. All cell densities were adjusted to 1×10^5 cells per well for each 24-well culture plate. After vascular endothelial cells were cultured for 24 h, in the hyperlipidemia group, 0.75 mM palm acid oil (CAS 57-10-3-800508; Sigma-Aldrich Co., St. Louis, MO, USA) (Oh et al., 2018) was added, and 10, 20, and 50 μg/mL of antcin K in each experiment was individually added.
(§3) We analyzed the content of inflammatory cytokines by ELISA. The supernatant of SVEC4-10 cells with palm acid oil hyperlipidemia treatment was collected after 24 h of culture and added to a 96-well micro-well plate (Thermo Scientific Nunc®, Nunc AS, Copenhagen, Denmark). An amount of 100 μL/well of carbonate buffer containing antibodies of 32 ng/mL purified rat anti-mouse TNF-α (88-7324; Invitrogen, Carlsbad, CA, USA) or 32 ng/mL purified rat anti-mouse IL-1_(88-7013; Invitrogen, Carlsbad, CA, USA) was added to each well and kept at 4° C. overnight. After that, we washed three times with 0.05% phosphate-buffered saline with Tween 20 (PBST) buffer to remove unbound monoclonal antibodies. Then, we added 200 μL/well of blocking solution to reduce nonspecific binding. […] The reaction was terminated with 2% H2SO4, and the absorbance at 450-570 nm was measured.

[5] = tested on: SVEC4-10 vascular endothelial cells; experiment: MTT cell viability assay; type: cell-based; details: for cell viability of vascular endothelial cells: sham = 100%
Protocol: as §1, §2
We used a 3-(4,5-Dimethylthiazol-2-yl)-2,5-diphenyltetrazolium bromide (MTT) assay to examine the cell viability of antcin K in this study. A total of 1×10^5 cells/mL SVEC4-10 cells were added to a 24-well plate, and 0.5 mM palm acid oil (Sigma-Aldrich Co., St. Louis, MO, USA) was partially added, and 10, 20, and 50 μg/mL of test samples were added to SVEC4-10 cells, followed by culturing within 24 h. After adding 0.5 mg/mL of MTT solution (M5655, Sigma-Aldrich Co., St. Louis, MO, USA) and culturing for 2 h, the supernatant was removed, and 100 μL/well of DMSO organic solvent was added, followed by a 5 min shaking and then absorbance measurement at 570 nm.

[6] = tested on: IL-1β; experiment: ELISA of IL-1β in palm acid oil-treated vascular endothelial cells; type: cell-based, mouse
Protocol: as §1, §2, §3

[7] = tested on: VCAM-1; experiment: Immunofluorescence staining of VCAM-1 in vascular endothelial cells; type: cell-based, mouse; details: 20 μg/mL with 0.75 mM palm acid oil; p<0.01
[8] = DPPH free radical scavenging assay; type: biochemical
Protocol: The antioxidant capacity of antcin K was examined by 1,1-diphenyl-2-trinitrophenylhydrazyl (DPPH) assay in this study. We formulated DPPH (D9132, Sigma-Aldrich Co., St. Louis, MO, USA) at a concentration of 1.5 mM per 1 mL and added 9 mL of methanol (322415, Sigma-Aldrich Co., St. Louis, MO, USA) to the mixed solution. The 100 μL of DPPH and 100 μL of 10, 20, and 50 μg/mL of test samples were taken, shaken, and mixed evenly, then placed at room temperature for 30 min in the dark. After that, the absorbance was measured at 517 nm using an ultraviolet/visible light spectrometer (Microplate Spectrophotometer, uQuant, Biotek Instruments, Inc., Winooski, VT, USA).
Different concentrations of test samples were prepared and compared with the standard L-Ascorbic acid (L-AA) (A5960, Sigma-Aldrich Co., St. Louis, MO, USA). Based on the reduction percentage of the absorbance value observed in the control group, the antioxidant capacity of each test sample to scavenge DPPH free radicals can be judged. After that, the test sample with the most robust ability to scavenge DPPH free radicals was selected and repeated three times. The formula is as follows: DPPH free radical scavenging rate (%)=(1−(absorption value of experimental group/absorption value of control group))×100.

[9] = tested on: KLF4; experiment: Immunofluorescence staining of KLF4 in vascular endothelial cells; type: cell-based, mouse; details: 20 μg/mL with 0.75 mM palm acid oil; p<0.01
Protocol: as §1
(§4) These cells were grown in a culture medium and maintained in a humidified incubator at 37° C. and 5% CO2. […]
(§5) We used immunofluorescence staining to examine expressions of KLF4 and CD36. […] Note that this step needs to be protected from light at the beginning Nuclei were stained with 1 μg/mL diamino-2-phenilindole (DAPI) (D3286, Sigma-Aldrich Co., St. Louis, MO, USA) for 10 min at room temperature after washing three times with PBS and mounted with a fluorescent protectant-containing adhesive to reduce fluorescence decay. Fluorescent images were obtained using a Leica DM IRB inverted fluorescence microscope (Leica Microsystems, Wetzlar, Germany), and analysis was performed using Leica Application Suite software (LAS) V4.12 s (Leica Microsystems, Wetzlar, Germany). The Rhodamine fluorescence-labeled cytoskeleton was visualized at 565 nm by exciting cells at 540 nm. […]

[10] = tested on: CD36; experiment: Immunofluorescence staining of CD36 in vascular endothelial cells; type: cell-based, mouse; details: 20 μg/mL with 0.75 mM palm acid oil
Protocol: as §1, §4, §5

[11] = tested on: vascular endothelial cells; experiment: Cellular lipid deposition assay (oil red O staining); type: cell-based; details: different concentrations of antcin K
Protocol: We used oil red O staining which was clearly described in a previous report (Luo et al., 2021) to examine cellular lipid deposition. RAW264.7 macrophages were fixed with 2% paraformaldehyde for 10-15 min at room temperature, washed three times with phosphate-buffered saline (PBS) and twice with ddH2O, and stained with 5% oil red O dye for 15 min at room temperature, then the supernatant was discarded. Vascular endothelial cells and RAW264.7 macrophages were infiltrated with 60% isopropanol, washed twice with ddH2O, and photographed with an optical microscope (Olympus BH2 system light microscope, Olympus Corporation, Tokyo, Japan).

[12] = Blood chemistry analysis (serum triglyceride, total cholesterol) in hypercholesterolemic rabbits; type: in vivo, rabbit; details: week 12; rabbits on 0.5% cholesterol chow plus 1% extract, 10 mg/kg pure compound or 10 mg/kg lovastatin; vs high fat diet group
Protocol: (§6) 2 to 3 kg male, New Zealand White rabbits were individually caged and housed in temperature and humidity-controlled rooms. Light-dark cycles were 12 h each. After several days of acclimation, the animals were sequentially assigned to six feeding groups: standard rabbit chow (ND), standard rabbit chow containing 0.5% cholesterol (HF), standard rabbit chow containing both 0.5% cholesterol and 10 mg/kg Lovastatin (L), standard rabbit chow containing both 0.5% cholesterol and 1% ARH003 (ARH003), standard rabbit chow containing both 0.5% cholesterol and 1% ARH004 (ARH004), standard rabbit chow containing both 0.5% cholesterol and 10 mg/kg Pure compound (P).
(§7) Except standard rabbit chow, others groups were given standard rabbit chow containing 0.5% cholesterol for 4 weeks. The daily feeding amount for each rabbit was 50 g/kg body weight per day.
(§8) Diets were administered for 8 weeks, after the animals had adjusted to their new environment. At the beginning and end of the 12 weeks study, the rabbits were anesthetized by an intramuscular injection of Zoletil 50 (1 mL/kg) (Virbac Ltd., France), and blood samples were harvested. Finally, the aortas (from aortic arch to the bifurcation of the iliac arteries) and whole livers were collected from the rabbits after they were sacrificed for further histopathological analyses.
The animals were fasted overnight before blood drawing. […]

[13] = Body weight in hypercholesterolemic rabbit model; type: in vivo; details: rabbits on chow with 0.5% cholesterol plus 1% extract, 10 mg/kg pure compound or 10 mg/kg lovastatin; during the intervention
Protocol: as §6, §7, §8

Question: For C=C(CC[C@@H](C)[C@H]1CC[C@H]2C3=C(C(=O)C[C@]12C)[C@@]1(C)CC[C@H](O)[C@](C)(O)C1CC3O)C(C)C(=O)O (stereo partly shown) [antcin K, 3a,4b,7b-tri-hydroxy4a-methylergosta-8,24(28)-dien-11-on-26-oic acid], which “expression of TNF-α of RAW264.7 macrophages” value [1] is on record?
Answer: 690.7 pg/mL

Question: And the “expression of IL-1β of RAW264.7 macrophage cells” value [2]?
Answer: 189.2 pg/mL

Question: What about the “migration of RAW264.7 macrophages to palm acid oil-treated vascular endothelial cells” value [3] of the same molecule?
Answer: enhanced

Question: And the “expression of TNF-α of vascular endothelial cells” value ([4]; 10 μg/mL with 0.75 mM palm acid oil (285.5 without))?
Answer: 178.8 pg/mL

Question: And the “expression of TNF-α of vascular endothelial cells” value ([4]; 20 μg/mL with 0.75 mM palm acid oil (285.5 without))?
Answer: 180.3 pg/mL

Question: And the “expression of TNF-α of vascular endothelial cells” value ([4]; 50 μg/mL with 0.75 mM palm acid oil (285.5 without))?
Answer: 181.0 pg/mL

Question: What about the “cell viability of vascular endothelial cells” value ([5]; 10 μg/mL with 0.75 mM palm acid oil) of the same molecule?
Answer: 71.5%

Question: And the “cell viability of vascular endothelial cells” value ([5]; 20 μg/mL with 0.75 mM palm acid oil)?
Answer: 84.6%

Question: What about the “cell viability of vascular endothelial cells” value ([5]; 50 μg/mL with 0.75 mM palm acid oil) of the same molecule?
Answer: 109.2%

Question: And the “change of cell viability of vascular endothelial cells” value ([5]; 10, 20 and 50 μg/mL without palm acid oil damage)?
Answer: not very obvious

Question: What about the IC50 ([5]; Mus musculus, SVEC4-10, antcin K treatment 0-50 μg/mL, MTT) of the same molecule?
Answer: > 50 µg/mL

Question: What about the “expression of IL-1β of vascular endothelial cells” value ([6]; 10 μg/mL with 0.75 mM palm acid oil (86.6 without)) of the same molecule?
Answer: 70.2 pg/mL

Question: And the “expression of IL-1β of vascular endothelial cells” value ([6]; 20 μg/mL with 0.75 mM palm acid oil (86.6 without))?
Answer: 69.3 pg/mL

Question: And the “expression of IL-1β of vascular endothelial cells” value ([6]; 50 μg/mL with 0.75 mM palm acid oil (86.6 without))?
Answer: 71.5 pg/mL

Question: And the “expression of VCAM-1 in palm acid oil-treated vascular endothelial cells” value [7]?
Answer: significantly decreased

Question: And the “free radicals scavenging efficiency (DPPH)” value ([8]; 20 μg/mL)?
Answer: 96.82%

Question: What about the “free radicals scavenging efficiency (DPPH)” value ([8]; 50 μg/mL) of the same molecule?
Answer: 98.81%

Question: What about the “expression of KLF4 in palm acid oil-treated vascular endothelial cells” value [9] of the same molecule?
Answer: significantly increased

Question: And the “expression of CD36 in palm oil-treated vascular endothelial cells” value [10]?
Answer: decreased

Question: What about the “lipid deposition in palm acid oil-treated vascular endothelial cells” value [11] of the same molecule?
Answer: decreased

Question: For CC[C@H](C)C(=O)O[C@H]1C[C@@H](C)C=C2C=C[C@H](C)[C@H](CC[C@@H]3C[C@@H](O)CC(=O)O3)[C@H]21 [lovastatin], which “serum total cholesterol levels” value [12] is on record?
Answer: higher

Question: What about the body weight gains [13] of the same molecule?
Answer: did not affect
